The test system of assay [1] is p53. The assay can be described thus: Western blot of HCT116 cells, p53 level. In kind it is cell-based, human. The note with it: Western blot (FIG. 2, FIG. 3).
The target of assay [2] is T1, MDM2 (Homo sapiens, UniProt Q00987).
T1 construct: Western blot of HCT116 cells treated with chimeric molecules; endogenous in cells; host or cells: HCT116
The assay can be described thus: Western blot of HCT116 cells, MDM2 level. In kind it is cell-based. The note with it: Western blot (FIG. 2, FIG. 3).

Assay [3] concerns the target T2, bromodomain-containing protein 4 (BRD4) (Homo sapiens, UniProt O60885).
T2 construct: VCaP cells were chased from ATCC and cultured in Dulbecco's Modified Eagle's Medium; host or cells: VCaP
As to the kind of experiment: BRD4 Western blot (degradation). In kind it is cell-based. The note with it: at 1 μM; VCaP cells, 16 h. As to the method:
(§1) The following biological assays were performed to evaluate the protein degradation in various cell types using representative compounds disclosed. The degradation of the following proteins were evaluated: bromodomain-containing protein 4 (BRD4), androgen receptor (AR), c-Myc, c-Jun N-terminal kinases (JNK), and enhancer of zeste homolog 2 (EZH2).
VCaP cells were chased from ATCC and cultured in Dulbecco's Modified Eagle's Medium (ATCC), supplemented with 10% FBS (ATCC) and Penicillin/Streptomycin (Life Technologies). DMSO control and compound treatments (0.03 μM to 1 μM) were performed in 12-well plates for 16 h. cells were harvested, and lysed in RIPA buffer (50 mM Tris pH8, 150 mM NaCl, 1% Tx-100, 0.1% SDS, 0.5% sodium deoxycholate) supplemented with protease and phosphatase inhibitors. Lysates were clarified at 16,000 g for 10 minutes, and protein concentration was determined. Equal amount of protein (20 μg) was subjected to SDS-PAGE analysis and followed by immunoblotting according to standard protocols. The antibodies used were BRD4 (Cell signaling #13440), and Actin (Sigma #5441). Detection reagents were Clarity Western ELC substrate (Bio-rad #170-5060).

Assay [4] addresses T3, androgen receptor (AR) (Homo sapiens, UniProt P10275).
T3 construct: detects endogenous levels of total androgen receptor protein; host or cells: VCaP
T3 sequence (P10275 1-920): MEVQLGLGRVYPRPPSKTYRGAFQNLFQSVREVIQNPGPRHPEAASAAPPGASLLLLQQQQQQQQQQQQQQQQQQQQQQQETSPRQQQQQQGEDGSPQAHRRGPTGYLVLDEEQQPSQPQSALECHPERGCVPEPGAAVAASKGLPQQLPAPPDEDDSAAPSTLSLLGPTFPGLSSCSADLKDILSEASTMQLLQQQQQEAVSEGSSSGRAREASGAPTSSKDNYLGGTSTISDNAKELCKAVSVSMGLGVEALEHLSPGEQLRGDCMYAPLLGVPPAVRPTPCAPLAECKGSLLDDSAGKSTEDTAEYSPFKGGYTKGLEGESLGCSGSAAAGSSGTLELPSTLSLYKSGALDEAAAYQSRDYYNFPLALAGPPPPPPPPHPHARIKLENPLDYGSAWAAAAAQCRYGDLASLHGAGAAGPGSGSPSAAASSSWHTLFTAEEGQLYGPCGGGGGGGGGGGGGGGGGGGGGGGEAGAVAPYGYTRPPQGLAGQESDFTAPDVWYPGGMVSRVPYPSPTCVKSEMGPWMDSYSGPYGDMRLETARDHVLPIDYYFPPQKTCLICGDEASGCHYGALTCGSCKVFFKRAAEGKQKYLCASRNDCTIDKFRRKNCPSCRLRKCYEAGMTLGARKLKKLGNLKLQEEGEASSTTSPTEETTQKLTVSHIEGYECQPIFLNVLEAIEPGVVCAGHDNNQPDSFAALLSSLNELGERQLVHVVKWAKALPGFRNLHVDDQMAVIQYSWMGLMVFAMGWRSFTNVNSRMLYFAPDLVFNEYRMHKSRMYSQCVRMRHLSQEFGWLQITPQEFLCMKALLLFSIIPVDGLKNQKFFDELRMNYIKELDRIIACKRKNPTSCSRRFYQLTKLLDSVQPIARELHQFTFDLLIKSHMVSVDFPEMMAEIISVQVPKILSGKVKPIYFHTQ
The assay can be described thus: AR ELISA assay (degradation). The note with it: VCaP cells, 16 h. Format: cell-based. The protocol:
as §1
VCaP cells were chased from ATCC and cultured in Dulbecco's Modified Eagle's Medium (ATCC), supplemented with 10% FBS (ATCC) and Penicillin/Streptomycin (Life Technologies). DMSO control and compound treatments (0.0001 μM to 1 μM) were performed in 96-well plates for 16 h. cells were harvested, and lysed with Cell Lysis Buffer (catalog #9803) (20 mM Tris-HCl, pH 7.5, 150 mM NaCl, 1 mM Na2EDTA, 1 mM EGTA, 1% Triton, 2.5 mM sodium pyrophosphate, 1 mM B-glycerophosphate, 1 mM Na3VO4, 1 μg/mL leupeptin. Lysates were clarified at 16,000 g for 10 minutes, and loaded into PathScan AR ELISA (Cell Signaling Catalog #12850). The PathScan Total Androgen Receptor Sanwich ELISA Kit is a solid phase sandwich enzyme-linked immunosorbent assay (ELISA) that detects endogenous levels of total androgen receptor protein. An Androgen Receptor Rabbit mAb has been coated onto the microwells. After incubation with cell lysates, androgen receptor protein is captured by the coated antibody. Following extensive washing, an Androgen receptor Mouse Detection mAbis added to detect the captured androgen receptor protein. Anti-mouse IgG, HRP-linked Antibody is then used to recognize the bound detection antibody. HRP substrate, TMB, is added to develop color. The magnitude of absorbance for the developed color is proportional to the quantity of total androgen receptor protein.

Molecules are shown by their SMILES.

T1 sequence (Q00987 whole entry): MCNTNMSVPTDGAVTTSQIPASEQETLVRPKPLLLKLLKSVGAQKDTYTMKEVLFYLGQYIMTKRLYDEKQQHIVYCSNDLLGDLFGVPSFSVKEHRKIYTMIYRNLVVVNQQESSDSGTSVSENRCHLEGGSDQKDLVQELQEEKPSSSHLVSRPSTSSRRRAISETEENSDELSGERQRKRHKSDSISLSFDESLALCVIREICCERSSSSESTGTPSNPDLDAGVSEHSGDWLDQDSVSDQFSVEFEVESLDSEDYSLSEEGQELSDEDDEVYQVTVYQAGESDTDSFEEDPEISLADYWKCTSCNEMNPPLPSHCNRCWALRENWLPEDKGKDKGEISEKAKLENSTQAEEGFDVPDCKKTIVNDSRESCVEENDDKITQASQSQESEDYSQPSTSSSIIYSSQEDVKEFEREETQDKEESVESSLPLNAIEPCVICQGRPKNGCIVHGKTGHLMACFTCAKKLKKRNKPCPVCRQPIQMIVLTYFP

For the molecule `COc1cc(C(=O)NCCOCCOCC(=O)N[C@H](C(=O)N2C[C@H](O)C[C@H]2C(=O)NCc2ccc(-c3scnc3C)cc2)C(C)(C)C)ccc1NC(=O)C1NC(CC(C)(C)C)C(C#N)(c2ccc(Cl)cc2F)C1c1cccc(Cl)c1F` (mixture of isomers) [Compound A1877, 3-(3-chloro-2-fluorophenyl)-4-(4-chloro-2-fluorophenyl)-4-cyano-5-(2,2-dimethylpropyl)-N-[4-({2-[2-({[(2S)-1-[(2S,4R)-4-hydroxy-2-({[4-(4-methyl-1,3-thiazol-5-yl)phenyl]methyl}carbamoyl)pyrrolidin-1-yl]-3,3-dimethyl-1-oxobutan-2-yl]carbamoyl}methoxy)ethoxy]ethyl}carbamoyl)-2-methoxyphenyl]pyrrolidine-2-carboxamide], in assay [1], the p53 level increase result is “dose dependent p53 level increase”. Besides, the MDM2 up-regulation result in assay [2] is “up-regulation of MDM2”.

`COc1cc(C(=O)NCCOCCOCCOCCOCC(=O)N[C@H](C(=O)N2C[C@H](O)C[C@H]2C(=O)NCc2ccc(-c3scnc3C)cc2)C(C)(C)C)ccc1NC(=O)[C@H]1N[C@H](CC(C)(C)C)[C@@](C#N)(c2ccc(Cl)cc2F)[C@@H]1c1cccc(Cl)c1F` (single isomer, unassigned) [Compound A1897]: in assay [1], the p53 level increase entry is listed as “no p53 level increase”. In addition, in assay [2], the MDM2 up-regulation entry is recorded as “no MDM2 up-regulation”.

Consider `COc1cc(C(=O)NCCOCCOCCNC(=O)C[C@@H]2N=C(c3ccc(Cl)cc3)c3c(sc(C)c3C)-n3c(C)nnc32)ccc1NC(=O)[C@@H]1N[C@@H](CC(C)(C)C)[C@](C#N)(c2ccc(Cl)cc2F)[C@H]1c1cccc(Cl)c1F` [Compound A1864, (2R,3S,4R,5S)-3-(3-chloro-2-fluorophenyl)-4-(4-chloro-2-fluorophenyl)-N-[4-({2-[2-(2-{2-[(9S)-7-(4-chlorophenyl)-4,5,13-trimethyl-3-thia-1,8,11,12-tetraazatricyclo-[8.3.0.0^2,^6]trideca-2(6),4,7,10,12-pentaen-9-yl]acetamido}ethoxy)ethoxy]ethyl}-carbamoyl)-2-methoxyphenyl]-4-cyano-5-(2,2-dimethylpropyl)pyrrolidine-2-carboxamide], for which, in assay [3], the “Degradation activity BRD4” value is on record as “B (25 to 50% degradation at 1 μM)”. In addition, the p53 level increase result in assay [1] is listed as “dose dependent p53 level increase”. Moreover, in assay [2], the MDM2 up-regulation entry is “up-regulation of MDM2”.

Consider `COc1cc(C(=O)NCCOCCNC(=O)C[C@@H]2N=C(c3ccc(Cl)cc3)c3c(sc(C)c3C)-n3c(C)nnc32)ccc1NC(=O)[C@H]1N[C@H](CC(C)(C)C)[C@@](C#N)(c2ccc(Cl)cc2F)[C@@H]1c1cccc(Cl)c1F` [Compound A1891, (2S,3R,4S,5R)-3-(3-chloro-2-fluorophenyl)-4-(4-chloro-2-fluorophenyl)-N-(4-{[2-(2-{2-[(9S)-7-(4-chlorophenyl)-4,5,13-trimethyl-3-thia-1,8,11,12-tetraazatricyclo[8.3.0.0^2,^6]-trideca-2(6),4,7,10,12-pentaen-9-yl]acetamido}ethoxy)ethyl]carbamoyl}-2-methoxyphenyl)-4-cyano-5-(2,2-dimethylpropyl)pyrrolidine-2-carboxamide], for which, in assay [3], the “Degradation activity BRD4” value is “A (0 to 25% degradation at 1 μM)”. Further, the p53 level increase entry in assay [1] is “no p53 level increase”. Further, in assay [2], the MDM2 up-regulation entry was “no MDM2 up-regulation”.

Consider `COc1cc(C(=O)NCCOCCOCC(=O)N[C@H](C(=O)N2C[C@H](O)C[C@H]2C(=O)NCc2ccc(-c3scnc3C)cc2)C(C)(C)C)ccc1NC(=O)[C@H]1N[C@H](CC(C)(C)C)[C@@](C#N)(c2ccc(Cl)cc2F)[C@@H]1c1cccc(Cl)c1F` [Compound A1908], for which the p53 level increase result in assay [1] is reported as “no p53 level increase”. Also, in assay [2], the MDM2 up-regulation result was “no MDM2 up-regulation”.

As for `COc1cc(C(=O)NCCOCCOCCOCC(=O)N[C@H](C(=O)N2C[C@H](O)C[C@H]2C(=O)NCc2ccc(-c3scnc3C)cc2)C(C)(C)C)ccc1NC(=O)[C@H]1N[C@H](CC(C)(C)C)[C@@](C#N)(c2ccc(Cl)cc2F)[C@@H]1c1cccc(Cl)c1F` [Compound A1911, (2S,3R,4S,5R)-3-(3-chloro-2-fluorophenyl)-4-(4-chloro-2-fluorophenyl)-4-cyano-5-(2,2-dimethylpropyl)-N-{4-[(2-{2-[2-({[(2S)-1-[(2S,4R)-4-hydroxy-2-({[4-(4-methyl-1,3-thiazol-5-yl)phenyl]methyl}-carbamoyl)pyrrolidin-1-yl]-3,3-dimethyl-1-oxobutan-2-yl]carbamoyl}methoxy)-ethoxy]ethoxy}ethyl)carbamoyl]-2-methoxyphenyl}pyrrolidine-2-carboxamide], the p53 level increase result in assay [1] is listed as “no p53 level increase”. Further, in assay [2], the MDM2 up-regulation result is listed as “no MDM2 up-regulation”.

For the molecule `CC(C)(C)CC1NC(C(=O)NCCCOCCCCCOc2ccc(N3C(=S)N(c4ccc(C#N)c(C(F)(F)F)c4)C(=O)C3(C)C)cc2)C(c2cccc(Cl)c2F)C1(C#N)c1ccc(Cl)cc1F` (stereo not shown) [Compound A2434, 3-(3-chloro-2-fluorophenyl)-4-(4-chloro-2-fluorophenyl)-4-cyano-N-(3-{[5-(4-{3-[4-cyano-3-(trifluoromethyl)phenyl]-5,5-dimethyl-4-oxo-2-sulfanylideneimidazolidin-1-yl}phenoxy)pentyl]oxy}propyl)-5-(2,2-dimethylpropyl)pyrrolidine-2-carboxamide], the AR degradation (%) at 1 µM in assay [4] was > 50%.

As to `COc1cc(C(=O)NCCCOCCCCCOc2ccc(N3C(=S)N(c4ccc(C#N)c(C(F)(F)F)c4)C(=O)C3(C)C)cc2)ccc1NC(=O)C1NC(CC(C)(C)C)C(C#N)(c2ccc(Cl)cc2F)C1c1cccc(Cl)c1F` (stereo not shown) [Compound A2435, 3-(3-chloro-2-fluorophenyl)-4-(4-chloro-2-fluorophenyl)-4-cyano-N-{4-[(3-{[5-(4-{3-[4-cyano-3-(trifluoromethyl)phenyl]-5,5-dimethyl-4-oxo-2-sulfanylideneimidazolidin-1-yl}phenoxy)pentyl]oxy}propyl)carbamoyl]-2-methoxyphenyl}-5-(2,2-dimethylpropyl)pyrrolidine-2-carboxamide], the AR degradation (%) at 1 µM in assay [4] was > 50%.
